Measurements reported in patent publication US12502386B2, “Nitrogen-containing heterocyclic compound and use thereof” (SHANGHAI SHIJIANG BIOTECHNOLOGY CO., LTD, priority 2022, dated 2025).

Key:
Format in all cases: cell-based, human
ov-NNMT NCI-H82 cell = assay: CellTiter-Glo cell viability, ov-NNMT NCI-H82 cell (NNMT overexpressed); settings: Homo sapiens, NCI-H82, NCI-H82 overexpressing NNMT protein, intracellular ATP, read-out: inhibitory effect on OV-NNMT NCI-H82 (IC50)
Con-NCI-H82 cell = assay: CellTiter-Glo cell viability, Con-NCI-H82 cell (empty-vector control); settings: Homo sapiens, NCI-H82, NCI-H82 transfected with empty virus vector (control), intracellular ATP, read-out: inhibitory effect on Con-NCI-H82 (IC50)
sh-DNMT1 NCI-H82 cell = assay: CellTiter-Glo cell viability, sh-DNMT1 NCI-H82 cell (DNMT1 knocked down); settings: Homo sapiens, NCI-H82, NCI-H82 with DNMT1 knocked down by shRNA, intracellular ATP, read-out: inhibitory effect on sh-DNMT1 NCI-H82 (IC50)

Structure (SMILES)	IC50 (ov-NNMT NCI-H82 cell)	IC50 (Con-NCI-H82 cell)	IC50 (sh-DNMT1 NCI-H82 cell)
COc1ccc2c(c1OC)CN1CCc3cc4c(cc3C1=C2Cc1ccc(C(C)C)cc1)OCO4 [AB31870]	1.32 µM	0.53 µM	2.54 µM
CCCCC1c2c(c(Br)cc(OC)c2OC)C=C2c3cc4c(cc3CCN21)OCO4 (stereo not drawn) [AB31873]	6.32 µM	2.88 µM	6.08 µM
COc1ccc2c(c1OCCCBr)CN1CCc3cc4c(cc3C1C2)OCO4 (stereo not drawn) [AB31878]	7.98 µM	8.23 µM	8.46 µM
CCCCCCC1c2c(ccc(OC)c2OC)C=C2c3cc4c(cc3CCN21)OCCO4 (stereo not drawn) [AB31880]	3.32 µM	0.99 µM	3.86 µM
COc1ccc2c(c1OCCCCOc1ccccc1)C(C)N1CCc3cc4c(cc3C1=C2)OCO4 (stereo not drawn) [AB31881]	4.04 µM	2.01 µM	3.98 µM
COc1ccc2c(c1OCCCBr)C(C)N1CCc3cc4c(cc3C1=C2)OCO4 (stereo not drawn) [AB31887]	5.78 µM	2.83 µM	5.69 µM
COc1ccc2c(c1OCCCCCCCl)C(C)N1CCc3cc4c(cc3C1=C2)OCO4 (stereo not drawn) [AB31888]	4.64 µM	2.26 µM	6.12 µM
COc1ccc2c(c1NCCc1ccccc1)C(C)N1CCc3cc4c(cc3C1=C2)OCO4 (stereo not drawn) [AB31895]	3.24 µM	1.14 µM	4.68 µM
COc1ccc2c(c1OC(=O)CC13CC4CC(CC(C4)C1)C3)C(C)N1CCc3cc4c(cc3C1=C2)OCO4 (stereo not drawn) [AB31896]	4.53 µM	1.31 µM	3.98 µM
COc1ccc2c(c1OCCCCCCBr)C(C)N1CCc3cc4c(cc3C1=C2)OCO4 (stereo not drawn) [AB31897]	5.32 µM	1.43 µM	4.96 µM
COc1ccc2c(c1OC)C(C)N1CCc3cc4c(cc3C1=C2)OCCO4 (stereo not drawn) [AB31898]	8.64 µM	3.69 µM	12.1 µM
COc1ccc2c(c1OC/C=C(\C)CCC=C(C)C)C(C)N1CCc3cc4c(cc3C1=C2)OCO4 (stereo not drawn) [AB35402]	2.43 µM	0.88 µM	3.45 µM
COc1ccc2c(c1OCCCCCCNC(=O)OC(C)(C)C)C(C(Cl)(Cl)Cl)N1CCc3cc4c(cc3C1=C2)OCO4 (stereo not drawn) [AB35407]	2.73 µM	0.74 µM	3.44 µM
COc1ccc2c(c1OC)C(C)N1CCc3cc4c(cc3C1=C2CCCc1ccccc1)OCO4 (stereo not drawn) [AB35411]	2.51 µM	1.24 µM	4.34 µM
CC1c2c(ccc3c2OCO3)C=C2c3cc4c(cc3CCN21)OCO4 (stereo not drawn) [AB35413]	14.2 µM	5.48 µM	20.3 µM
COc1ccc2c(c1OCCCCCCNC(=O)OC(C)(C)C)C(C)N1CCc3cc4c(cc3C1=C2)OCO4 (stereo not drawn) [AB35415]	3.42 µM	1.14 µM	5.48 µM
COc1ccc2c(c1OCCNC(=O)OC(C)(C)C)C(C(Cl)(Cl)Cl)N1CCc3cc4c(cc3C1=C2)OCO4 (stereo not drawn) [AB35416]	5.23 µM	2.31 µM	6.35 µM
CCCCCC1=C2c3cc4c(cc3CCN2C(C(Cl)(Cl)Cl)c2c1ccc(OC)c2OC)OCO4 (stereo not drawn) [AB35418]	1.26 µM	0.53 µM	2.25 µM
COc1ccc2c(c1OCCN1CCCCC1)C(C(Cl)(Cl)Cl)N1CCc3cc4c(cc3C1=C2)OCO4 (stereo not drawn) [AB35420]	12.5 µM	4.99 µM	18.2 µM
ClC(Cl)(Cl)C1c2c(ccc3c2OCO3)C=C2c3cc4c(cc3CCN21)OCO4 (stereo not drawn) [AB35421]	12.4 µM	5.77 µM	21.2 µM
CCCCCC1=C2c3cc4c(cc3CCN2C(C)c2c1ccc(OC)c2OC)OCO4 (stereo not drawn) [AB35422]	5.48 µM	2.32 µM	4.94 µM
COc1ccc2c(c1OCCCCNC(=O)OC(C)(C)C)C(C(Cl)(Cl)Cl)N1CCc3cc4c(cc3C1=C2)OCO4 (stereo not drawn) [AB35423]	4.96 µM	2.16 µM	4.36 µM
COc1ccc2c(c1OCCNC(=O)OC(C)(C)C)C(C)N1CCc3cc4c(cc3C1=C2)OCO4 (stereo not drawn) [AB35424]	11.2 µM	5.02 µM	10.8 µM

Structure (SMILES)	IC50 (ov-NNMT NCI-H82 cell)	IC50 (Con-NCI-H82 cell)	IC50 (sh-DNMT1 NCI-H82 cell)
CCCCCCC1c2c(ccc3c2OCO3)C=C2c3cc4c(cc3CCN21)OCO4 (stereo not drawn) [AB35426]	1.56 µM	0.46 µM	2.12 µM
CC1c2c(ccc3c2OCO3)C(CCCc2ccccc2)=C2c3cc4c(cc3CCN21)OCO4 (stereo not drawn) [AB35427]	1.82 µM	0.56 µM	3.24 µM
ClC(Cl)(Cl)C1c2c(ccc3c2OCO3)C(CCCc2ccccc2)=C2c3cc4c(cc3CCN21)OCO4 (stereo not drawn) [AB35428]	10.2 µM	4.23 µM	15.4 µM
COc1ccc2c(c1OC/C=C(\C)CCC=C(C)C)C(C1CCCC1)N1CCc3cc4c(cc3C1=C2)OCO4 (stereo not drawn) [AB35438]	2.12 µM	0.72 µM	3.22 µM
COc1ccc2c(c1OCCCCCCCl)C(C1CCCC1)N1CCc3cc4c(cc3C1=C2)OCO4 (stereo not drawn) [AB35440]	2.56 µM	0.98 µM	4.12 µM
COc1ccc2c(c1OCCCN1CCCCC1)C(C)N1CCc3cc4c(cc3C1=C2)OCO4 (stereo not drawn) [AB35442]	8.38 µM	9.22 µM	9.32 µM
COc1ccc2c(c1OCCN1CCCCC1)C(C)N1CCc3cc4c(cc3C1=C2)OCO4 (stereo not drawn) [AB35443]	18.1 µM	20.6 µM	20.9 µM
COc1ccc2c(c1OC)C(C(Cl)(Cl)Cl)N1CCc3cc4c(cc3C1=C2CCc1ccccc1)OCO4 (stereo not drawn) [AB35444]	4.21 µM	1.15 µM	5.28 µM
CCCCN1CCN(c2c(OC)ccc3c2C(C(Cl)(Cl)Cl)N2CCc4cc5c(cc4C2=C3)OCO5)CC1 (stereo not drawn) [AB35445]	13.4 µM	5.55 µM	16.4 µM
COc1ccc2c(c1OCCN(C)C)C(C(Cl)(Cl)Cl)N1CCc3cc4c(cc3C1=C2)OCO4 (stereo not drawn) [AB35446]	16.3 µM	18.4 µM	17.9 µM
COc1ccc2c(c1OC)C(C(Cl)(Cl)Cl)N1CCc3cc4c(cc3C1=C2Cc1ccccn1)OCO4 (stereo not drawn) [AB35447]	25.7 µM	26.2 µM	24.3 µM
COc1ccc2c(c1OC)C(C1CCCC1)N1CCc3cc4c(cc3C1=C2CCc1ccccc1)OCO4 (stereo not drawn) [AB35448]	2.98 µM	1.34 µM	2.88 µM
COc1ccc2c(c1N1CCC(C)CC1)C(C(Cl)(Cl)Cl)N1CCc3cc4c(cc3C1=C2)OCO4 (stereo not drawn) [AB35453]	1.32 µM	0.23 µM	2.08 µM
COc1ccc2c(c1OCCCCOc1ccccc1)C(C1CCCC1)N1CCc3cc4c(cc3C1=C2)OCO4 (stereo not drawn) [AB35454]	3.25 µM	1.02 µM	4.98 µM
COc1ccc2c(c1OCCCCCCNC(=O)OC(C)(C)C)C(C1CCCC1)N1CCc3cc4c(cc3C1=C2)OCO4 (stereo not drawn) [AB35455]	3.33 µM	1.11 µM	3.12 µM
COc1ccc2c(c1OCCCCl)C(C)N1CCc3cc4c(cc3C1=C2)OCO4 (stereo not drawn) [AB35456]	6.72 µM	2.36 µM	8.42 µM
COc1ccc2c(c1NCCc1ccccc1)C(C1CCCC1)N1CCc3cc4c(cc3C1=C2)OCO4 (stereo not drawn) [AB35457]	2.56 µM	0.96 µM	2.33 µM
COc1ccc2c(c1OCCCCCCBr)C(C1CCCC1)N1CCc3cc4c(cc3C1=C2)OCO4 (stereo not drawn) [AB35458]	4.12 µM	1.56 µM	5.32 µM
COc1ccc2c(c1OC(=O)CC13CC4CC(CC(C4)C1)C3)C(C1CCCC1)N1CCc3cc4c(cc3C1=C2)OCO4 (stereo not drawn) [AB35459]	12.3 µM	4.97 µM	16.5 µM
COc1ccc2c(c1OC)C(C1CCCC1)N1CCc3cc4c(cc3C1=C2Cc1ccc(C(C)C)cc1)OCO4 (stereo not drawn) [AB35460]	2.02 µM	0.66 µM	2.56 µM
COc1ccc2c(c1N1CCC(NC(=O)OC(C)(C)C)CC1)C(C(Cl)(Cl)Cl)N1CCc3cc4c(cc3C1=C2)OCO4 (stereo not drawn) [AB35465]	9.32 µM	2.69 µM	8.84 µM
COc1ccc2c(c1OCCCBr)C(C(Cl)(Cl)Cl)N1CCc3cc4c(cc3C1=C2)OCO4 (stereo not drawn) [AB35466]	3.56 µM	1.01 µM	4.48 µM
